In series [1] the target is T1, von Hippel-Lindau disease tumor suppressor/Receptor-type tyrosine-protein kinase FLT3 (Homo sapiens) (UniProt P36888+P40337). Put plainly: PROTAC activity at VHL/FLT-3 in human K562 cells assessed as reduction in FLT-3 protein level at 20 uM incubated for 48 hrs by Western blot analysis. The class given is cell-based.
Series [2] has as its target T1, von Hippel-Lindau disease tumor suppressor/Receptor-type tyrosine-protein kinase FLT3 (Homo sapiens). The series is described as follows: PROTAC activity at VHL/FLT-3 in human HL-60 cells assessed as reduction in FLT-3 protein level at 20 uM preincubated with MG-132 for 1 hrs followed by compound addition and measured after for 48 hrs by Western blot analysis. Format: cell-based. For orientation: In western blotting, separated proteins are transferred to a membrane and probed.

Series [3] shares this target. Put plainly: PROTAC activity at VHL/FLT-3 in human HL-60 cells assessed as reduction in FLT-3 protein level at 10 uM incubated for 12 hrs by Western blot analysis. Format: cell-based.
In series [4] the test system is K562. The series is described as follows: Antiproliferative activity against human K562 cells assessed as reduction in cell viability at 20 uM incubated for 24 hrs by CCK-8 assay. The class given is functional, cell-based.
Series [5] is described as follows: Cytotoxicity against human NCM460 cells assessed as inhibition of cell growth. Format: toxicity, cell-based.
Series [6] concerns A498. The series is described as follows: Antiproliferative activity against human A498 cells assessed as inhibition of cell growth incubated for 48 hrs by CCK-8 assay. Format: functional, cell-based. Particulars: A498, 48 h.
The subject of series [7] is HL-60. Put plainly: Antiproliferative activity against human HL-60 cells assessed as inhibition of cell growth incubated for 48 hrs by CCK-8 assay. The class given is functional, cell-based. Particulars: HL-60, 48 h. A general note: Formazan colour is commonly taken as a measure of viable cells.
Series [8] concerns A498. Put plainly: Antiproliferative activity against human A498 cells assessed as reduction in cell viability at 20 uM incubated for 24 hrs by CCK-8 assay. Format: functional, cell-based.
For series [9], the target named is T2, von Hippel-Lindau disease tumor suppressor/Mast/stem cell growth factor receptor Kit (Homo sapiens) (UniProt P10721+P40337). The series is described as follows: PROTAC activity at VHL/c-KIT in human HL-60 cells assessed as reduction in c-KIT protein level at 20 uM preincubated with VHL032 for 1 hrs followed by compound addition and measured after for 48 hrs by Western blot analysis. Format: cell-based.
T2 sequence (P10721 whole entry, looked up): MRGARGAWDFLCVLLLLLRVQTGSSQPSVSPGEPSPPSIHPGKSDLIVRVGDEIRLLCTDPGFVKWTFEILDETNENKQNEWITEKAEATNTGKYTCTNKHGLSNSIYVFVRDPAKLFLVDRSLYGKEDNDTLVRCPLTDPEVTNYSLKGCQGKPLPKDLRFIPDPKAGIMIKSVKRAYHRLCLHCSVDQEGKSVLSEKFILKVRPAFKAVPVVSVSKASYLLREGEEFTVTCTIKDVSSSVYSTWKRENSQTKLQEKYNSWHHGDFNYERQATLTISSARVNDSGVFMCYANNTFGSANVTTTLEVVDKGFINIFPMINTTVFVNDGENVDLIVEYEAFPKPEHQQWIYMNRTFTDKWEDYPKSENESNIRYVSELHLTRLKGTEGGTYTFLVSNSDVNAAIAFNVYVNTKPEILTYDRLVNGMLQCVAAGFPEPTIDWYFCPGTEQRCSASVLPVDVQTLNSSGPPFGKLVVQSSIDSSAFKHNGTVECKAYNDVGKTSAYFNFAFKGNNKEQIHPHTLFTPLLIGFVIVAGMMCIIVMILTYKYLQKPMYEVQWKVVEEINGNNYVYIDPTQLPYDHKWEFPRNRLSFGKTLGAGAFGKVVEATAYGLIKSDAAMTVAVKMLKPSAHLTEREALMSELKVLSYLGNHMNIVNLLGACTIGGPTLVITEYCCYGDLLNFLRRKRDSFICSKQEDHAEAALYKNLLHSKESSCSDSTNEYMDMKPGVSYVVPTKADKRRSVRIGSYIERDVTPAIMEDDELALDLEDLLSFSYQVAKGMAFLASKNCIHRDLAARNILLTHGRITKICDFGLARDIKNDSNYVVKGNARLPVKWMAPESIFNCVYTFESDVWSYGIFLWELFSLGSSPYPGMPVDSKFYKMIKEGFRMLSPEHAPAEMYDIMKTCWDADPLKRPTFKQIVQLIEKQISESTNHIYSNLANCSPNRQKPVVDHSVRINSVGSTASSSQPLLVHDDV
T2 sequence (P40337 whole entry, looked up): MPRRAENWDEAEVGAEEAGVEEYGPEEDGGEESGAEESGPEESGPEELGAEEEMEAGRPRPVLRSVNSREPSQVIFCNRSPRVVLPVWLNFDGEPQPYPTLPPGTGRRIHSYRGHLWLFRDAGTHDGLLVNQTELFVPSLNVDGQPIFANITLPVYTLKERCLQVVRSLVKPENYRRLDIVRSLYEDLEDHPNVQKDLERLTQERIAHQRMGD

In series [10] the target is T1, von Hippel-Lindau disease tumor suppressor/Receptor-type tyrosine-protein kinase FLT3 (Homo sapiens). The series is described as follows: PROTAC activity at VHL/FLT-3 in human HL-60 cells assessed as reduction in FLT-3 protein level at 20 uM incubated for 24 hrs by Western blot analysis. Format: cell-based.
Series [11] has the same target. The series is described as follows: PROTAC activity at VHL/FLT-3 in human HL-60 cells assessed as reduction in FLT-3 protein level at 10 uM by Western blot analysis. Particulars: time 4-48 hrs, TDE = time-dependent effect. The class given is cell-based.
Series [12] relates to HL-60. Put plainly: Antiproliferative activity against human HL-60 cells assessed as reduction in cell viability at 20 uM incubated for 24 hrs by CCK-8 assay. Format: functional, cell-based.
In series [13] the test system is K562. Put plainly: Antiproliferative activity against human K562 cells assessed as inhibition of cell growth incubated for 48 hrs by CCK-8 assay. The conditions noted are these: K562, 48 h. Format: functional, cell-based.
In series [14] the target is T1, von Hippel-Lindau disease tumor suppressor/Receptor-type tyrosine-protein kinase FLT3 (Homo sapiens). Put plainly: PROTAC activity at VHL/FLT-3 in human HL-60 cells assessed as reduction in FLT-3 protein level at 10 to 20 uM incubated for 48 hrs by Western blot analysis. The class given is cell-based. The conditions noted are these: dose 10-20 µM.
Series [15] addresses T2, von Hippel-Lindau disease tumor suppressor/Mast/stem cell growth factor receptor Kit (Homo sapiens). The series is described as follows: PROTAC activity at VHL/c-KIT in human HL-60 cells assessed as reduction in c-KIT protein level at >10 uM measured at 24 to 48 hrs by Western blot analysis. Format: cell-based. Particulars: time 24-48 hrs.
Series [16] concerns the target T1, von Hippel-Lindau disease tumor suppressor/Receptor-type tyrosine-protein kinase FLT3 (Homo sapiens). The series is described as follows: PROTAC activity at VHL/FLT-3 in human HL-60 cells assessed as reduction in FLT-3 protein level at 1 uM incubated for 1 hrs by Western blot analysis. The class given is cell-based.

From ChEMBL document CHEMBL5150032, “Sunitinib-based Proteolysis Targeting Chimeras (PROTACs) reduced the protein levels of FLT-3 and c-KIT in leukemia cell lines” (Bioorg Med Chem Lett, 2022) come the findings set out here.

Active and inactive are the calls of the source. The calls are words filed in the database; no cut-off is given here. Residues, ends and D or L forms follow the SMILES beside them. *: point of attachment. Cbz = O=C(OCc1ccccc1)* Bounds are passed on as bounds.

T1 sequence (P36888 27-993 limits assumed): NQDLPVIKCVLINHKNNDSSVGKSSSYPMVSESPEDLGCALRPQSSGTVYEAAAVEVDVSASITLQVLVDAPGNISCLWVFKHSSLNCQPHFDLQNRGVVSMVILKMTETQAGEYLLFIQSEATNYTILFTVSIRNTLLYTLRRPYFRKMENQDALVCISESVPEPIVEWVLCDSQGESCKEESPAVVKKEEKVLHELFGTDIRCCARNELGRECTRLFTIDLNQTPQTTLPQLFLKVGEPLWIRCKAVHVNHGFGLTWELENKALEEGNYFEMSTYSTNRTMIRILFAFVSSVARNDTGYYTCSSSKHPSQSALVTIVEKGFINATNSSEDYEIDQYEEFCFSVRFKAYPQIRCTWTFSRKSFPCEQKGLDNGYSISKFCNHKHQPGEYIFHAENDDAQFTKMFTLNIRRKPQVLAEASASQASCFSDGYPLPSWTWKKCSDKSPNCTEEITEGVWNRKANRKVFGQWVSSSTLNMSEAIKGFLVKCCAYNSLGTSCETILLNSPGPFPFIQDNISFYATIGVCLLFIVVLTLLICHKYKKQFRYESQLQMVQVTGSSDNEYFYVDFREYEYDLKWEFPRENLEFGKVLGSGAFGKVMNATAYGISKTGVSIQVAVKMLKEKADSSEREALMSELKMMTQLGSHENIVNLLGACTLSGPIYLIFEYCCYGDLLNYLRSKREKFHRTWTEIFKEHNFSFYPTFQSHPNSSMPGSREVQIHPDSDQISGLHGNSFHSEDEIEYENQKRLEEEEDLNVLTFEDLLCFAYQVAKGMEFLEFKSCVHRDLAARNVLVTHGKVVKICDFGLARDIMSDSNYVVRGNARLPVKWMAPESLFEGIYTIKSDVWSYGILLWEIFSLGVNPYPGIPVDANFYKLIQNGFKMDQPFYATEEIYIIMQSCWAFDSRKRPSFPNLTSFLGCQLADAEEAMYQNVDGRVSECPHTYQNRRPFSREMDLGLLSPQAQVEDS
T1 sequence (P40337 whole entry partner): as the sequence (P40337 whole entry, looked up) above

What is called IC50 is the midpoint of a concentration-inhibition curve. For `Cc1ncsc1-c1ccc(CNC(=O)[C@@H]2C[C@@H](O)CN2C(=O)[C@@H](NC(=O)COCCOCCNC(=O)c2c(C)[nH]c(/C=C3\C(=O)Nc4ccc(F)cc43)c2C)C(C)(C)C)cc1`, the result (in series [1]; in series [2]; in series [3]; in the series on K562 [4]; in the series with A498 [8]; in [9]) was Active. Besides, the outcome (in [10]; in the series with HL-60 [12]; in [14]; in series [15]) was Active. The IC50 in series [5] is greater than 100 µM; in the series with A498 [6], 13.1 µM; in the series on HL-60 [7], 2.9 µM; with K562 [13] it was 11.6 µM. Further, the Activity result in series [11] was “Tde”.
For `CC(C)C[C@@H](C=O)NC(=O)[C@H](CC(C)C)NC(=O)[C@H](CC(C)C)NC(=O)OCc1ccccc1` (Cbz-Leu-Leu-Leu-aldehyde), the result in series [16] was Active.
For `Cc1ncsc1-c1ccc(CNC(=O)[C@@H]2C[C@@H](O)CN2C(=O)[C@@H](NC(=O)COCCOCCOCCNC(=O)c2c(C)[nH]c(/C=C3\C(=O)Nc4ccc(F)cc43)c2C)C(C)(C)C)cc1`, the IC50 in the series with A498 [6] was found to be 18.1 µM; with HL-60 [7], 12.7 µM; in the series on K562 [13] it was 15.2 µM.
In the case of `CCN(CC)CCNC(=O)c1c(C)[nH]c(/C=C2\C(=O)Nc3ccc(F)cc32)c1C` [SUNITINIB], the IC50 in the series with A498 [6] was 1.2 µM; in the series on HL-60 [7], 8.7 µM; with K562 [13], 5.8 µM.
With `CCN(CCNC(=O)c1c(C)[nH]c(/C=C2\C(=O)Nc3ccc(F)cc32)c1C)CC(=O)N[C@H](C(=O)N1C[C@H](O)C[C@H]1C(=O)NCc1ccc(-c2scnc2C)cc1)C(C)(C)C`, the outcome (in series [1]; in the series with K562 [4]; with A498 [8]; in the series with HL-60 [12]) was Active. Besides, the half-maximal inhibitory concentration (IC50) in series [5] is greater than 100 µM; with A498 [6], 26.5 µM; with HL-60 [7], 36.5 µM; in the series with K562 [13], 8.4 µM.
